Type in all cases: ADME, organism-based
A short description of data set [1]: Tmax in Sprague-Dawley rat at 1 mg/kg, iv measured by LC-MS/MS analysis. Particulars: in vivo.
Data set [2] is described as follows: Mean residence time in Sprague-Dawley rat at 10 mg/kg, ig measured by LC-MS/MS analysis. Conditions: in vivo, po.
Data set [3] is described as follows: Bioavailability in Sprague-Dawley rat at 10 mg/kg, ig measured by LC-MS/MS analysis. Particulars: in vivo, po.
The nature of data set [4]: Tmax in Sprague-Dawley rat at 10 mg/kg, ig measured by LC-MS/MS analysis. Conditions: in vivo, po.
Data set [5] is described as follows: AUClast in Sprague-Dawley rat at 1 mg/kg, iv measured by LC-MS/MS analysis. The arrangement: dose 1 mg/kg. Conditions: in vivo.
Data set [6] is described as follows: Mean residence time in Sprague-Dawley rat at 1 mg/kg, iv measured by LC-MS/MS analysis. Conditions: in vivo.
A short description of data set [7]: AUClast in Sprague-Dawley rat at 10 mg/kg, ig measured by LC-MS/MS analysis. Further details: dose 10 mg/kg. Particulars: in vivo, po.

What is called Tmax is the time at which the peak concentration occurs. As usually defined, the MRT is a mean duration of stay, worked out from the concentration-time curve. For orientation: bioavailability means the share of a dose that reaches the circulation, judged against a reference dose that is usually intravenous. A lower bioavailability goes with poor availability. For `COC[C@H](NC(=O)c1cc(C)on1)C(=O)NCC(=O)N[C@@H](Cc1ccccc1)C(=O)[C@@]1(C)CO1`, the Tmax in data set [1] was determined as 4.8 min; in data set [4], 10.2 min. Moreover, the mean residence time MRT in data set [2] turned out to be 36.6 min; in data set [6] it was 8.4 min. For the same compound, the bioavailability in data set [3] came out at 6.3%. Moreover, the AUClast in data set [5] amounted to 72 ng·mL·h; in data set [7] it was 42 ng·mL·h.

Take `COC[C@H](NC(=O)c1cc(C)on1)C(=O)NCC(=O)N[C@@H](CC(C)C)C(=O)[C@@]1(C)CO1`: the Tmax in data set [1] was 4.8 min; in data set [4], 13.2 min. In addition, the values for the MRT in data set [2] and in data set [6] were 51.6 min and 19.8 min, respectively. The compound also gave a bioavailability in data set [3] of 13.5%. Also, the results for the AUClast in data set [5] and in data set [7] were 107 ng·mL·h and 119 ng·mL·h, respectively.
